# Results from PubChem BioAssay (NCI).
#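 Test compounds were applied to cells in 96-well plates for 48 hours at 5 doses. The concentration for 50% growth inhibition is given as GI50. TGI marks complete inhibition of growth.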
# Tests used:
# Test in all cases: NCI tumour cell line growth inhibition, 48 h
# NCI/ADR-RES ovarian = test system: NCI/ADR-RES ovarian
# EKVX NSCLC = test system: EKVX NSCLC
# SNB-19 CNS = test system: SNB-19 CNS
# TK-10 renal = test system: TK-10 renal
# MCF7 breast = test system: MCF7 breast
# IGROV1 ovarian = test system: IGROV1 ovarian
# SK-MEL-2 melanoma = test system: SK-MEL-2 melanoma
# CAKI-1 renal = test system: CAKI-1 renal
# RPMI-8226 leukemia = test system: RPMI-8226 leukemia
# NCI-H226 lung = test system: NCI-H226 lung
# T-47D breast = test system: T-47D breast
# HL-60(TB) leukemia = test system: HL-60(TB) leukemia
# 786-0 renal = test system: 786-0 renal
# CCRF-CEM leukemia = test system: CCRF-CEM leukemia
# HCT-116 colon = test system: HCT-116 colon
# OVCAR-8 ovarian = test system: OVCAR-8 ovarian
# SR leukemia = test system: SR leukemia
# NCI-H23 lung = test system: NCI-H23 lung
# SF-268 CNS = test system: SF-268 CNS
# MALME-3M melanoma = test system: MALME-3M melanoma
# MDA-MB-231 breast = test system: MDA-MB-231 breast
# A549 NSCLC = test system: A549 NSCLC
# SF-295 CNS = test system: SF-295 CNS
# SN12C renal = test system: SN12C renal
# SK-OV-3 ovarian = test system: SK-OV-3 ovarian
# SNB-75 CNS = test system: SNB-75 CNS
# NCI-H460 lung = test system: NCI-H460 lung
# SK-MEL-5 melanoma = test system: SK-MEL-5 melanoma
# HCC-2998 colon = test system: HCC-2998 colon
# MOLT-4 leukemia = test system: MOLT-4 leukemia
# RXF 393 renal = test system: RXF 393 renal
# SK-MEL-28 melanoma = test system: SK-MEL-28 melanoma
# UO-31 renal = test system: UO-31 renal
# UACC-257 melanoma = test system: UACC-257 melanoma
# HT29 colon = test system: HT29 colon
# PC-3 prostate = test system: PC-3 prostate
# BT-549 breast = test system: BT-549 breast
# SW-620 colon = test system: SW-620 colon
# UACC-62 melanoma = test system: UACC-62 melanoma
# OVCAR-3 ovarian = test system: OVCAR-3 ovarian
# SF-539 CNS = test system: SF-539 CNS
# M14 melanoma = test system: M14 melanoma
# NCI-H522 lung = test system: NCI-H522 lung
# ACHN renal = test system: ACHN renal
# LOX IMVI melanoma = test system: LOX IMVI melanoma
# K-562 leukemia = test system: K-562 leukemia
# MDA-MB-435 = test system: MDA-MB-435
# OVCAR-4 ovarian = test system: OVCAR-4 ovarian
# COLO 205 colon = test system: COLO 205 colon
# HOP-62 NSCLC = test system: HOP-62 NSCLC
# HCT-15 colon = test system: HCT-15 colon
# OVCAR-5 ovarian = test system: OVCAR-5 ovarian
# A498 renal = test system: A498 renal
# HS 578T breast = test system: HS 578T breast
# DU-145 prostate = test system: DU-145 prostate
# HOP-92 NSCLC = test system: HOP-92 NSCLC
# KM12 colon = test system: KM12 colon
# U251 CNS = test system: U251 CNS
compound,measurement,setting,value
C[C@@]12CCC[C@@](C)(C(=O)O)C1CC[C@@]13CC(=O)[C@@](CO)(CCC12)C3 (stereo partly specified),GI50,NCI/ADR-RES ovarian,> 100 µM
same,TGI,NCI/ADR-RES ovarian,> 100 µM
same,GI50,EKVX NSCLC,> 100 µM
same,TGI,EKVX NSCLC,> 100 µM
same,GI50,SNB-19 CNS,> 100 µM
same,TGI,SNB-19 CNS,> 100 µM
same,GI50,TK-10 renal,> 100 µM
same,TGI,TK-10 renal,> 100 µM
same,GI50,MCF7 breast,> 100 µM
same,TGI,MCF7 breast,> 100 µM
same,GI50,IGROV1 ovarian,> 100 µM
same,TGI,IGROV1 ovarian,> 100 µM
same,GI50,SK-MEL-2 melanoma,> 100 µM
same,TGI,SK-MEL-2 melanoma,> 100 µM
same,GI50,CAKI-1 renal,> 100 µM
same,TGI,CAKI-1 renal,> 100 µM
same,GI50,RPMI-8226 leukemia,> 100 µM
same,TGI,RPMI-8226 leukemia,> 100 µM
same,GI50,NCI-H226 lung,> 100 µM
same,TGI,NCI-H226 lung,> 100 µM
same,GI50,T-47D breast,> 100 µM
same,TGI,T-47D breast,> 100 µM
same,GI50,HL-60(TB) leukemia,> 100 µM
same,TGI,HL-60(TB) leukemia,> 100 µM
same,GI50,786-0 renal,> 100 µM
same,TGI,786-0 renal,> 100 µM
same,GI50,CCRF-CEM leukemia,> 100 µM
same,TGI,CCRF-CEM leukemia,> 100 µM
same,GI50,HCT-116 colon,> 100 µM
same,TGI,HCT-116 colon,> 100 µM
same,GI50,OVCAR-8 ovarian,> 100 µM
same,TGI,OVCAR-8 ovarian,> 100 µM
same,GI50,SR leukemia,> 100 µM
same,TGI,SR leukemia,> 100 µM
same,GI50,NCI-H23 lung,> 100 µM
same,TGI,NCI-H23 lung,> 100 µM
same,GI50,SF-268 CNS,> 100 µM
same,TGI,SF-268 CNS,> 100 µM
same,GI50,MALME-3M melanoma,> 100 µM
same,TGI,MALME-3M melanoma,> 100 µM
same,GI50,MDA-MB-231 breast,> 100 µM
same,TGI,MDA-MB-231 breast,> 100 µM
same,GI50,A549 NSCLC,> 100 µM
same,TGI,A549 NSCLC,> 100 µM
same,GI50,SF-295 CNS,> 100 µM
same,TGI,SF-295 CNS,> 100 µM
same,GI50,SN12C renal,> 100 µM
same,TGI,SN12C renal,> 100 µM
same,GI50,SK-OV-3 ovarian,> 100 µM
same,TGI,SK-OV-3 ovarian,> 100 µM
same,GI50,SNB-75 CNS,> 100 µM
same,TGI,SNB-75 CNS,> 100 µM
same,GI50,NCI-H460 lung,> 100 µM
same,TGI,NCI-H460 lung,> 100 µM
same,GI50,SK-MEL-5 melanoma,> 100 µM
same,TGI,SK-MEL-5 melanoma,> 100 µM
same,GI50,HCC-2998 colon,> 100 µM
same,TGI,HCC-2998 colon,> 100 µM
same,GI50,MOLT-4 leukemia,> 100 µM
same,TGI,MOLT-4 leukemia,> 100 µM
same,GI50,RXF 393 renal,> 100 µM
same,TGI,RXF 393 renal,> 100 µM
same,GI50,SK-MEL-28 melanoma,> 100 µM
same,TGI,SK-MEL-28 melanoma,> 100 µM
same,GI50,UO-31 renal,> 100 µM
same,TGI,UO-31 renal,> 100 µM
same,GI50,UACC-257 melanoma,> 100 µM
same,TGI,UACC-257 melanoma,> 100 µM
same,GI50,HT29 colon,> 100 µM
same,TGI,HT29 colon,> 100 µM
same,GI50,PC-3 prostate,> 100 µM
same,TGI,PC-3 prostate,> 100 µM
same,GI50,BT-549 breast,> 100 µM
same,TGI,BT-549 breast,> 100 µM
same,GI50,SW-620 colon,> 100 µM
same,TGI,SW-620 colon,> 100 µM
same,GI50,UACC-62 melanoma,> 100 µM
same,TGI,UACC-62 melanoma,> 100 µM
same,GI50,OVCAR-3 ovarian,> 100 µM
same,TGI,OVCAR-3 ovarian,> 100 µM
same,GI50,SF-539 CNS,> 100 µM
same,TGI,SF-539 CNS,> 100 µM
same,GI50,M14 melanoma,> 100 µM
same,TGI,M14 melanoma,> 100 µM
same,GI50,NCI-H522 lung,> 100 µM
same,TGI,NCI-H522 lung,> 100 µM
same,GI50,ACHN renal,> 100 µM
same,TGI,ACHN renal,> 100 µM
same,GI50,LOX IMVI melanoma,> 100 µM
same,TGI,LOX IMVI melanoma,> 100 µM
same,GI50,K-562 leukemia,> 100 µM
same,TGI,K-562 leukemia,> 100 µM
same,GI50,MDA-MB-435,> 100 µM
same,TGI,MDA-MB-435,> 100 µM
same,GI50,OVCAR-4 ovarian,> 100 µM
same,TGI,OVCAR-4 ovarian,> 100 µM
same,GI50,COLO 205 colon,> 100 µM
same,TGI,COLO 205 colon,> 100 µM
same,GI50,HOP-62 NSCLC,> 100 µM
same,TGI,HOP-62 NSCLC,> 100 µM
same,GI50,HCT-15 colon,> 100 µM
same,TGI,HCT-15 colon,> 100 µM
same,GI50,OVCAR-5 ovarian,> 100 µM
same,TGI,OVCAR-5 ovarian,> 100 µM
same,GI50,A498 renal,> 100 µM
same,TGI,A498 renal,> 100 µM
same,GI50,HS 578T breast,> 100 µM
same,TGI,HS 578T breast,> 100 µM
same,GI50,DU-145 prostate,> 100 µM
same,TGI,DU-145 prostate,> 100 µM
same,GI50,HOP-92 NSCLC,> 100 µM
same,TGI,HOP-92 NSCLC,> 100 µM
same,GI50,KM12 colon,> 100 µM
same,TGI,KM12 colon,> 100 µM
same,GI50,U251 CNS,> 100 µM
same,TGI,U251 CNS,> 100 µM
